Five compounds from patent US11512079B2, “Heterocycle substituted pyridine derivative antifungal agents” (Amplyx Pharmaceuticals, Inc., priority 2017, dated 2022) can be followed below.

Each structure is given as a SMILES string. Converted amounts (≈) assume the structure as drawn.

One experiment has as its system C. neoformans strain H99. Briefly: Murine model of cryptococcal meningitis, dosing in the presence of the pan-CYP inhibitor ABT, CD-1 mice. The class given is in vivo, Cryptococcus neoformans. Conditions: for reduction of CFU in brain vs untreated control / reduction of CFU in lung vs untreated control: preliminary experiment, 100 mg/kg ABT PO 2 h prior to each dose, n=5. On the procedure:
Efficacy of exemplary compounds in a murine model of cryptococcal meningitis when dosed in the presence of the pan-CYP inhibitor ABT. […] 100 mg/kg ABT was administered orally to male CD-1 mice 2 h prior to compound administration. Mice were injected with 6.9×10^4 CFU C. neoformans strain H99 per mouse via lateral tail vein at T=0 h. Treatment with each prodrug was initiated about 1 h post-infection by IP administration and continued daily for 7 days with 100 mg/kg ABT administered orally 2 h prior to each dose of compound. The mean log10 CFU/g brain and lung counts in untreated control mice were 7.83±0.09 and 4.67±0.88, respectively (FIG. 1).
[…] A 60 mg/kg dose QD without ABT was also evaluated as a control.
Cryptococcal meningitis model. C. neoformans strain H99 was grown in YPD broth at 30° C. on a shaker (220 rpm) for 24 h, centrifuged (1980 ref) and washed twice in PBS, resuspended in PBS, and quantified by hemacytometric count. CD-1 male mice were infected with ˜5×10^4 CFU per mouse via lateral tail vein injection of 100 μL. Mice were weighed, and treatment was within 1 h after infection. Treatments were administered daily for seven days. Mice were weighed daily and observed for acute and chronic adverse symptoms. Mice were sacrificed on day 8, and brain and left lung were homogenized and cultured for quantitative determination of tissue burden (CFU per gram of tissue). Tissues were homogenized for 25 seconds in […] phosphate buffered saline using two 6.5 mm steel beads and a Mini-Beadbeater 16 (Biospec Products, Inc., Bartlesville, Okla.), and serially diluted in 10-fold steps. Aliquots ([…]) of homogenate were plated and incubated for 3 to 7 days at 37° C. Fungal burden data were log10 transformed and evaluated using Kruskal-Wallis tests with Dunn's Multiple Comparison Test for Post-hoc analysis (Prism 5; GraphPad Software, Inc., San Diego, Calif.). A P value of ≤0.05 is considered statistically significant.

In a further experiment the test system is C. neoformans isolates. Nature of the experiment: Activity vs susceptible and FLC non-susceptible/resistant strains, broth microdilution. The class given is cell-based, Cryptococcus neoformans. The text has this: (§1) The activity of Gwt1 inhibitors against susceptible and FLC non-susceptible/resistant strains.
(§2) Isolates tested. C. neoformans strains H99, DUMC 118.00, DUMC 158.03 and C. gattii strains R272, and RSA-MW-3515 were obtained from Duke University. C. albicans 90028, A. fumigatus MYA3626, C. neoformans 14116, C. neoformans 76484 and the pathogenic Cryptococcus reference strains panel (ATCC MP-11) were obtained from American Type Culture Collection (ATCC, Manassas, Va., USA). The MP-11 panel consists of strains representing eight molecular types and three subtypes of C. neoformans and C. gattii.
(§3) Antifungal susceptibility testing. To establish antimicrobial activity, broth microdilution susceptibility testing was performed according to Clinical and Laboratory Standards Institute (CLSI) guidelines M27-A3 for yeasts and M38-A2 for molds. Compound 2 and analogs were first diluted in DMSO to obtain intermediate dilutions. These were further diluted in microtiter plates to obtain a final concentration of 2 to 0.002 μg/mL. 1 μl of DMSO was added to “No drug” control wells. The solutions were mixed on a plate shaker for 10 mins and plates incubated at 35° C. for 40 to 48 h (C. albicans, A. fumigatus) and 72 h (C. neoformans). The minimum concentration that led to 50% reduction in fungal growth as compared to the control (with the aid of a reading mirror) was determined as the minimum inhibitory concentration (MIC) for C. albicans and C. neoformans.

Experiment [1] concerns strains of C. neoformans and C. gattii. Nature of the experiment: Activity vs Cryptococcus, summary over the strains tested. It is filed as cell-based, Cryptococcus neoformans and Cryptococcus gattii. Conditions: for MIC GEOMEAN: geometric mean over the 18 isolates of C. neoformans and C. gattii; for MIC90: panel of 18 isolates of C. neoformans and C. gattii.
Source text: as §1, §2, §3

The subject of another experiment is C. gattii isolates. Nature of the experiment: Activity vs susceptible and FLC non-susceptible/resistant strains, broth microdilution. The class given is cell-based, Cryptococcus gattii.
Source text: as §1, §2, §3

Experiment [2] relates to Aspergillus fumigatus MYA3626. Nature of the experiment: In vitro antifungal assay (Example IX), microdilution broth, MEC. It is filed as cell-based. Conditions: minimum effective concentration (shortening of hyphae), 35° C., 40-48 h, RPMI1640. A digest of the protocol:
(§4)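 Read-out is the minimum effective concentration: lowest compound level causing shorter hyphae than in DMSO controls, echinocandin-style. Broth microdilution used conidia or spores harvested from agar plates, cleared of mycelium and clumps, at a final 1-2×10^4 spores/mL in RPMI1640.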

Experiment [3] concerns Rhizomucor pusillus 46342. The description is as above. The class given is cell-based. Conditions: minimum effective concentration (shortening of hyphae), 35° C., 40-48 h, RPMI1640. The procedure, abridged:
as §4

Another experiment deals with Candida albicans 90028. Briefly: In vitro antifungal assay (Example IX), microdilution broth, MIC. The class given is cell-based. Conditions: minimum inhibitory concentration (≥50% inhibition), 35° C., 40-48 h, RPMI1640. A digest of the protocol:
(§5)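 Yeast inocula (2.5×10^3 cells/mL, RPMI1640) were exposed to twofold compound series reaching 2-0.0019 μg/mL final, per CLSI yeast methodology. Incubation at 35° C. ran 40-48 h for Candida albicans 90028 and 72 h for Cryptococcus neoformans H99. MIC endpoints were confirmed by absorbance at 600 nm.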

In experiment [4] the test system is Cryptococcus neoformans H99. The experiment is described as above. Conditions: minimum inhibitory concentration (≥50% inhibition), 35° C., 72 h, RPMI1640. It is filed as cell-based. A digest of the protocol:
as §5

For the next experiment, the system named is Cryptococcus gattii. Described as above. It is filed as cell-based. Conditions: minimum inhibitory concentration (≥50% inhibition), 35° C., 72 h (Cryptococcus), RPMI1640. The procedure, abridged:
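MIC was determined from OD600 after 72 h at 35 °C for Cryptococcus, in RPMI1640 inoculated at 2.5×10^3 cells/mL. Compounds were tested as a 2-fold series from 2 to 0.0019 μg/mL final, added from DMSO intermediates at a 100-fold dilution.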

[5] abbreviates: in the presence of ABT, 20 mg/kg Ex. 172 prodrug, 60 mg/kg Ex. 173 prodrug, 80 mg/kg Compound 1.
[6] abbreviates: C. neoformans DUMC 118.00 (FLC-resistant).
Setting [7] is: C. neoformans DUMC 158.03 (FLC-resistant).
The mark [8] stands for this setting: C. gattii RSA-MW-3615 (FLC-resistant).

In the case of `Nc1c(-c2cc(Cc3ccc(OCc4ccccc4)cc3)no2)ccc[n+]1COP(=O)([O-])O`, in the experiment with C. neoformans strain H99 (setting [5]), the “log10 CFU/g brain reductions at doses of similar AUC (approximately 80 μg·h/mL)” value came to 1.45 log10 CFU/g and the “log10 CFU/g lung reductions at doses of similar AUC (approximately 80 μg·h/mL)” value worked out at 1.55 log10 CFU/g. Also, in the experiment on C. neoformans strain H99 (34 mg/kg QD IP 7 days), the “reduction of CFU in brain vs untreated control” value stood at 1.66 log10 CFU/g and the “reduction of CFU in lung vs untreated control” value was 1.07 log10 CFU/g. Also, in the experiment on C. neoformans strain H99 (85 mg/kg QD IP 7 days), the “reduction of CFU in brain vs untreated control” value is given as 2.72 log10 CFU/g and the “reduction of CFU in lung vs untreated control” value was found to be 3.28 log10 CFU/g.
On to `Nc1ncccc1-c1cc(Cc2ccc(OCc3ccccc3)cc2)no1` [Example 2020], for which the MIC is 0.031 µg/mL (≈ 0.0867 µM) with C. neoformans isolates (C. neoformans 14116); 0.063 µg/mL (≈ 0.176 µM) with C. neoformans isolates (C. neoformans 76484); 0.063 µg/mL (≈ 0.176 µM) against C. neoformans isolates (setting [6]); 0.25 µg/mL (≈ 0.699 µM) with C. neoformans isolates (setting [7]); 0.031 µg/mL (≈ 0.0867 µM) against C. neoformans isolates (C. neoformans H99); 0.063 µg/mL (≈ 0.176 µM) against C. neoformans isolates (C. neoformans MYA-4564). Further, the MIC with C. neoformans isolates (C. neoformans MYA-4565) is 0.25 µg/mL (≈ 0.699 µM); against C. neoformans isolates (C. neoformans MYA-4566), 0.125 µg/mL (≈ 0.35 µM); against C. neoformans isolates (C. neoformans MYA-4567), 0.063 µg/mL (≈ 0.176 µM); against C. gattii isolates (C. gattii MYA-4093), 0.125 µg/mL (≈ 0.35 µM); with C. gattii isolates (C. gattii MYA-4094), 0.25 µg/mL (≈ 0.699 µM); against C. gattii isolates (C. gattii MYA-4560), 0.063 µg/mL (≈ 0.176 µM). For the same compound, the MIC against C. gattii isolates (C. gattii MYA-4561) worked out at 0.125 µg/mL (≈ 0.35 µM); against C. gattii isolates (C. gattii MYA-4562), 0.125 µg/mL (≈ 0.35 µM); with C. gattii isolates (C. gattii MYA-4563), 0.125 µg/mL (≈ 0.35 µM); against C. gattii isolates (C. gattii MYA-4877), 0.063 µg/mL (≈ 0.176 µM); with C. gattii isolates (setting [8]), 0.031 µg/mL (≈ 0.0867 µM). The “MIC GEOMEAN” value in experiment [1] was 0.085 µg/mL (≈ 0.238 µM). In addition, the MIC90 in experiment [1] worked out at 0.25 µg/mL (≈ 0.699 µM).
As to `Nc1ncccc1-c1cc(Cc2ccc(Oc3cccc(F)n3)cc2)no1` [Example 2039], the MIC in the experiment on C. neoformans isolates (C. neoformans 14116) was 0.004 µg/mL (≈ 0.011 µM); in the experiment with C. neoformans isolates (C. neoformans 76484), 0.004 µg/mL (≈ 0.011 µM); against C. neoformans isolates (setting [6]), 0.016 µg/mL (≈ 0.0442 µM); against C. neoformans isolates (setting [7]), 0.031 µg/mL (≈ 0.0855 µM); in the experiment on C. neoformans isolates (C. neoformans H99), 0.004 µg/mL (≈ 0.011 µM); in the experiment with C. neoformans isolates (C. neoformans MYA-4564) it was 0.004 µg/mL (≈ 0.011 µM). Moreover, the MIC is 0.031 µg/mL (≈ 0.0855 µM) against C. neoformans isolates (C. neoformans MYA-4565); 0.008 µg/mL (≈ 0.0221 µM) against C. neoformans isolates (C. neoformans MYA-4566); 0.016 µg/mL (≈ 0.0442 µM) against C. neoformans isolates (C. neoformans MYA-4567); 0.016 µg/mL (≈ 0.0442 µM) in the experiment with C. gattii isolates (C. gattii MYA-4093); 0.016 µg/mL (≈ 0.0442 µM) with C. gattii isolates (C. gattii MYA-4094); 0.008 µg/mL (≈ 0.0221 µM) in the experiment with C. gattii isolates (C. gattii MYA-4560). For the same compound, the minimal inhibitory concentration (MIC) against C. gattii isolates (C. gattii MYA-4561) stood at 0.016 µg/mL (≈ 0.0442 µM); with C. gattii isolates (C. gattii MYA-4562) it was 0.016 µg/mL (≈ 0.0442 µM); against C. gattii isolates (C. gattii MYA-4563), 0.016 µg/mL (≈ 0.0442 µM); in the experiment on C. gattii isolates (C. gattii MYA-4877), 0.008 µg/mL (≈ 0.0221 µM); in the experiment with C. gattii isolates (setting [8]) it was 0.004 µg/mL (≈ 0.011 µM). Also, the “MIC GEOMEAN” value in [1] came out at 0.010 µg/mL (≈ 0.0276 µM). The same compound had an MIC90 in experiment [1] of 0.031 µg/mL (≈ 0.0855 µM).
Take `Nc1ncccc1-c1cc(Cc2ccc(Nc3cc(F)ccc3F)nc2)no1` [compound 244, 5-((5-(2-aminopyridin-3-yl)isoxazol-3-yl)methyl)-N-(2,5-difluorophenyl)pyridin-2-amine]: the minimal effective concentration in experiment [2] was 0.1 to 1 µg/mL; in [3] it was greater than 1 µg/mL. Besides, the MIC (in the experiment on Candida albicans 90028; in [4]; in the experiment on Cryptococcus gattii) was 0.1 to 1 µg/mL (≈ 0.264 to 2.64 µM) in each case.
As to `Nc1ncccc1-c1cc(Cc2ccc(Nc3ccc(F)c(F)c3F)nc2)no1` [compound 245, 5-((5-(2-aminopyridin-3-yl)isoxazol-3-yl)methyl)-N-(2,3,4-trifluorophenyl)pyridin-2-amine], the minimal effective concentration in experiment [2] is 0.1 to 1 µg/mL; in experiment [3] it was greater than 1 µg/mL. The MIC (against Candida albicans 90028; in experiment [4]; against Cryptococcus gattii) was 0.1 to 1 µg/mL (≈ 0.252 to 2.52 µM) each time.
